Measured values published in article PMC6161010, “A Simple and Sensitive Liquid Chromatography with Tandem Mass Spectrometric Method for the Simultaneous Determination of Anthraquinone Glycosides and Their Aglycones in Rat Plasma: Application to a Pharmacokinetic Study of Rumex acetosa Extract” (Pharmaceutics, 2018).
Where two headings read alike, the source gives them in different places.

Columns and labels:
[1] = Stability of the analytes in rat plasma (method validation); type: in vitro ADME; conditions: n = 3; for Processed Sample Stability, Accuracy: processed rat plasma sample, 4 °C 24 h; for Short Term Stability, Accuracy / Freeze and Thaw Stability, Accuracy / Long Term Stability, Accuracy: rat plasma; for Short Term Stability, Accuracy: room temperature 4 h; for Freeze and Thaw Stability, Accuracy: three freeze-thaw cycles −80 °C to room temperature; for Long Term Stability, Accuracy: −80 °C one month
Procedure: (§1) The stability of the analytes in rat plasma was evaluated by analyzing triplicates of three QC levels at room temperature for 4 h (short-term stability), −80 °C for one month (long-term stability), three freeze-thaw cycles from −80 °C to room temperature (freeze and thaw stability), and 4 °C for 24 h (processed sample stability). The stability of analytes in stock solution was also evaluated. The peak areas obtained from freshly prepared stock solutions were compared with stock solutions stored for 4 h at room temperature.

[2] = Pharmacokinetic study after oral administration of R. acetosa extract to rats; type: in vivo, Sprague‒Dawley rats; conditions: oral R. acetosa extract 2 g/kg; for MRT / half-life / Cmax / AUC(0-t): n = 3, mean ± SD; for Cmax / AUC(0-t): rat plasma; for AUC(0-t): last measured time points for C, E, CG, PG 6, 24, 8, 6 h
Procedure: The analysis was performed on an Agilent 1260 series (Agilent Technologies, Waldbronn, Germany) HPLC system. Chromatographic separation of the samples was carried out on a Kinetex Biphenyl column (100 × 3.0 mm, 2.6 μm, 110 Å, Phenomenex, Torrance, CA, USA). The mobile phase consisted of 2 mM ammonium formate (pH 6) in water (A) and 2 mM ammonium formate (pH 6) in methanol (B). The gradient program was used at a flow rate of 0.3 mL/min while maintaining the column temperature at 40 °C. The mobile phase initial composition of 25% B was maintained for 2 min. It was then increased linearly from 25% to 95% B for 0.5 min and held for 7 min. The gradient was then changed back to the initial condition for 0.5 min and kept at the initial condition for 3 min. The total analysis time was 13 min for each sample. The injection volume was 15 μL.
The mass spectrometric detection was performed on an Agilent 6460 triple-quadruple mass spectrometer (Agilent Technologies, Singapore) with an electrospray ionization source. It was operated in the negative ion detection mode because of its higher sensitivity than that in the positive ionization mode on multiple reaction monitoring (MRM). The data were acquired and processed using Mass Hunter Workstation B.06.00 software (Agilent Technologies, Singapore). The source parameters were also optimized as follows: a drying gas flow and temperature at 6 L/min and 350 °C were used, respectively; the sheath gas flow and temperature were maintained at 12 L/min and 350 °C, respectively; the nebulizing gas (N2) pressure was set at 25 psi; and the capillary and nozzle voltages were set at 3500 V and 500 V, respectively.
To 20 μL aliquot of the rat plasma samples, 60 μL of 5 ng/mL IS in methanol was added. The mixture was vortexed for 30 s and kept at 4 °C for 30 min. The mixture was centrifuged at 10,000× g for 10 min. The supernatant was transferred to an HPLC vial, and 15 μL of the processed sample was injected onto the LC-MS/MS system.
Male Sprague‒Dawley rats (8-week-old, weighing 250 ± 10 g) were obtained from Koatech (Pyeongtaek, Korea). They were housed and acclimated in the Animal Laboratory, Gyeongsang National University, under controlled temperature and humidity and regular 12 h light cycle, freely accessible to food and water for 7 days before the experiment. The rats were cannulated into the carotid artery and allowed to recover for one day. Before the pharmacokinetic study, all rats were fasted for 12 h with free access to water. R. acetosa extract suspended in a solution (ethanol:polysorbate 80:water = 1:2:7, v/v/v) was orally administered to the three rats at a dose of 2 g/kg. The calculated doses of compounds based on the contents in the extract were 18.8, 25.8, 13.6, 15.4, 3.4, and 8.2 mg/kg for E, EG, C, CG, P, and PG, respectively. Blood samples (100 µL) were collected via the cannulated carotid vessel at 0, 15, 30, 45 min, 1, 2, 3, 4, 6, 8, 12, and 24 h after oral administration. To collect plasma, the blood samples were immediately centrifuged at 10,000× g for 5 min. All plasma samples were stored at −80 °C until analysis. All experimental procedures of the animal study were approved (GNU-130618-R0038) by the Animal Care and Use Committee of Gyeongsang National University, Korea.

[3] = Stability of analytes in stock solution; type: physicochemical; conditions: stock solutions stored at room temperature for 4 h, n = 3
Procedure: The primary stock solutions of E, EG, C, CG, P, PG, and IS were prepared in dimethyl sulfoxide at a concentration of 1 mg/mL and stored at −80 °C. The mixture stock solutions to obtain the standard solutions were serially diluted in methanol. The IS stock solution of 5 ng/mL was prepared in methanol. The calibration standards were prepared by spiking 10 μL of above standard solutions into 90 μL of blank rat plasma to yield concentration ranges of 1–300 ng/mL for E, 20–300 ng/mL for P and C, 1–150 ng/mL for EG, 10–150 ng/mL for CG and PG. Twenty microliters of aliquots were prepared and stored at −80 °C until analysis.
as §1

[4] = high QC (P, E, C 300; PG, EG, CG 150 ng/mL)
[5] = low QC (P, C 60; E, EG 3; PG, CG 30 ng/mL)
[6] = middle QC (P, E, C 150; PG, EG, CG 75 ng/mL)
[7] = male, Sprague-Dawley, plasma, rat
[8] = male, Sprague-Dawley, plasma, rat, n = 3, median (range), read-out: Tmax

| SMILES | Processed Sample Stability, Accuracy [1, 4] [%] | Processed Sample Stability, Accuracy [1, 5] [%] | Processed Sample Stability, Accuracy [1, 6] [%] | Short Term Stability, Accuracy [1, 4] [%] | Short Term Stability, Accuracy [1, 5] [%] | Short Term Stability, Accuracy [1, 6] [%] | Freeze and Thaw Stability, Accuracy [1, 4] [%] | Freeze and Thaw Stability, Accuracy [1, 5] [%] | Freeze and Thaw Stability, Accuracy [1, 6] [%] | Long Term Stability, Accuracy [1, 4] [%] | Long Term Stability, Accuracy [1, 5] [%] | Long Term Stability, Accuracy [1, 6] [%] | MRT [2, 7] [h] | half-life [2, 7] [h] | Cmax ([2]; male, Sprague-Dawley) [ng/mL] | AUC(0-t) ([2]; male, Sprague-Dawley) [ng·h/mL] | first time detected in plasma of every rat (first sampling time) ([2]; rat) [min] | time from which plasma concentrations were below the LLOQ ([2]; rat) [h] | mean concentration in stock solution compared with fresh stock solutions [3] [%] | Tmax [2, 8] [h] | further results |
| --- | --- | --- | --- | --- | --- | --- | --- | --- | --- | --- | --- | --- | --- | --- | --- | --- | --- | --- | --- | --- | --- |
| Cc1cc(O)c2c(c1)C(=O)c1cccc(O)c1C2=O [C, chrysophanol] | 102.3 | 101.5 | 103.7 | 101.2 | 103.5 | 98.6 | 92.4 | 89.7 | 91.8 | 102.6 | 104.3 | 97.9 | 2.4 ± 0.2 | 3.9 ± 0.6 | 156 ± 86 | 266 ± 70.9 | 15 | 6 | 95.9 | – | Tmax ([2]; male, Sprague-Dawley, plasma, rat, read-out: Median Tmax (converted)): 0.25 h; Tmax ([2]; rat, n = 3, median (range)): 0.25 (0.25–0.5) h |
| Cc1cc(O)c2c(c1)C(=O)c1cccc(O[C@@H]3O[C@H](CO)[C@@H](O)[C@H](O)[C@H]3O)c1C2=O [CG, chrysophanol-8-O-β-D-glucoside] | 96.7 | 91.1 | 100.2 | 101.8 | 97.6 | 96.9 | 97.0 | 98.3 | 101.0 | 101.5 | 97.5 | 100.6 | 2.4 ± 0.08 | 4.8 ± 0.5 | 28.7 ± 4.7 | 158 ± 12.3 | 15 | – | 101.7 | 2 | time until which the analyte could be detected in plasma ([2]; rat): 8 h |
| COc1cc(O)c2c(c1)C(=O)c1cc(C)cc(O)c1C2=O [P, physcion] | 102.7 | 102.2 | 101.6 | 103.8 | 104.9 | 98.9 | 104.2 | 103.6 | 103.9 | 98.0 | 107.3 | 100.1 | – | – | – | – | – | – | 99.2 | – | plasma concentrations (in words) ([2]; rat): not high enough to determine the pharmacokinetic parameters |
| COc1cc(O[C@@H]2O[C@H](CO)[C@@H](O)[C@H](O)[C@H]2O)c2c(c1)C(=O)c1cc(C)cc(O)c1C2=O [PG, physcion-8-O-β-D-glucoside] | 96.8 | 98.8 | 92.7 | 96.7 | 98.9 | 91.8 | 93.6 | 101.5 | 94.3 | 97.1 | 97.7 | 98.5 | 2.7 ± 0.6 | 6.2 ± 3.9 | 20.5 ± 1.4 | 82.8 ± 13.8 | 15 | 6 | 102.4 | 0.75 | – |
